For one assay, the target named is T1, HSP90a protein (Homo sapiens, UniProt P07900).
T1 construct: purchased BPS Bioscience 50298
The assay is described as follows: HSP90α-binding fluorescent polarization (FP) assay, BODIPY-labeled RNK04010 probe. The note with it: FP competition with RNK04010 (BODIPY-labeled), 5 nM, 300 min at 25° C. Summed up: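 Polarization signal was read after equilibration at 25° C, for 120 min with FITC-geldanamycin or 300 min with the BODIPY-tagged RNK04010 probe, each at 5 nM final. Compounds spanned 20 μM down to 5.2 nM in 2.5-fold dilutions against the HSP90a N-terminal domain.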

Assay [1] deals with NCI-H23 human non-small cell lung cancer. The assay is described as follows: NCI-H23 CCK-8 proliferation assay. It is filed as cell-based. The note with it: NCI-H23 cells, 72 hr. The method, then: The following cancer cell lines were employed: BT-474 human breast carcinoma (ATCC, #HTB-20); MIA PaCa-2 human pancreatic carcinoma [2 copies KRAS(G12C)](ATCC, #CRL-1420); NCI-H23 human non-small cell lung cancer [1 copy KRAS(G12C)](ATCC, #CRL-5800); NCI-H358 human non-small cell lung cancer [1 copy KRAS(G12C)](ATCC, #CRL-5807); LU65A human lung carcinoma (Pharmaron, Beijing, China). Cell lines were cultured essentially according to ATCC and Pharmaron recommendations.
Cancer Cell Line Proliferation (CCK-8) Assays
3-fold serial dilutions of each test compound were prepared ranging from 20 μM to 1.02 nM.
% Inhibition=100−(D−B)/(S−B)*100%. • S: Absorbance of cells treated with DMSO • D: Absorbance of compound-treated cells • B: Absorbance of medium with DMSO without cells
A general note: Tetrazolium assays rely on reduction of a dye to a coloured formazan, in cell work by metabolically active cells.

The subject of assay [2] is NCI-H358 human non-small cell lung cancer. The assay is described as follows: NCI-H358 CCK-8 proliferation assay. It is filed as cell-based. The note with it: NCI-H358 cells, 72 hr. Summed up: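 MIA PaCa-2 (2 copies KRAS(G12C)), NCI-H358 and NCI-H23 (1 copy KRAS(G12C) each) were exposed to compound in 3-fold serial dilutions from 20 μM to 1.02 nM. Viability was read as CCK-8 absorbance, and % inhibition was computed against DMSO-treated cells, with cell-free DMSO medium as blank.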

This passage reports IC50 and EC50 results from US20230391772A1, “METHODS AND COMPOSITIONS FOR TARGETED PROTEIN DEGRADATION” (Ranok Therapeutics (Hangzhou) Co. Ltd., priority 2020, published 2023).

Molecules are shown by their SMILES. Bounds are passed on as bounds.

The term IC50 denotes the point on the concentration scale where inhibition reaches its midpoint. For orientation: EC50 means the concentration giving half of the maximal effect. Low values mean an effect from little substance, high ones a need for much substance. In the case of `C=CC(=O)N1CCN(c2nc(NCCC(=O)N3CCC(CN4CCN(Cc5ccc(-n6c(C(N)=O)nnc6-c6cc(CC)c(O)cc6O)cc5)CC4)CC3)nc3c2CCN(c2cc(O)cc4ccccc24)C3)CC1` [Compound 71, 4-(4-((4-((1-(3-((4-(4-acryloylpiperazin-1-yl)-7-(3-hydroxynaphthalen-1-yl)-5,6,7,8-tetrahydropyrido[3,4-d]pyrimidin-2-yl)amino)propanoyl)piperidin-4-yl)methyl)piperazin-1-yl)methyl)phenyl)-5-(5-ethyl-2,4-dihydroxyphenyl)-4H-1,2,4-triazole-3-carboxamide], on HSP90a protein, the IC50 is below 100 nM. For the same molecule, the EC50 in assay [1] is above 1000 nM; in assay [2], 100 to 1000 nM.

Molecule `CCC(=O)N1CCN(c2nc(N3CCC(CN4CCN(Cc5ccc(-n6c(O)nnc6-c6cc(C(C)C)c(O)cc6O)cc5)CC4)CC3)nc3c2CCN(c2cccc4cccc(Cl)c24)C3)C[C@@H]1CC#N` [Compound 128, (S)-2-(4-(7-(8-chloronaphthalen-1-yl)-2-(4-((4-(4-(3-(2,4-dihydroxy-5-isopropylphenyl)-5-hydroxy-4H-1,2,4-triazol-4-yl)benzyl)piperazin-1-yl)methyl)piperidin-1-yl)-5,6,7,8-tetrahydropyrido[3,4-d]pyrimidin-4-yl)-1-propionylpiperazin-2-yl)acetonitrile] showed an IC50 at HSP90a protein of 100 to 1000 nM. For the same molecule, the EC50 in assay [1] and in assay [2] was 100 to 1000 nM in each case.

`C=CC(=O)N1CCN(c2nc(NCCC(=O)N[C@H](C)c3ccc(CN4CCC(Cc5ccc(-n6c(O)nnc6-c6cc(C(C)C)c(O)cc6O)cc5)CC4)cc3)nc3c2CCN(c2cc(O)cc4ccccc24)C3)CC1` [Compound 18, (R)-3-((4-(4-acryloylpiperazin-1-yl)-7-(3-hydroxynaphthalen-1-yl)-5,6,7,8-tetrahydropyrido[3,4-d]pyrimidin-2-yl)amino)-N-(1-(4-((4-(4-(3-(2,4-dihydroxy-5-isopropylphenyl)-5-hydroxy-4H-1,2,4-triazol-4-yl)benzyl)piperidin-1-yl)methyl)phenyl)ethyl)propanamide, trifluoroacetic acid] had a half-maximal inhibitory concentration (IC50) on HSP90a protein of 100 to 1000 nM. The EC50 in assay [1] and in assay [2] was 100 to 1000 nM in each case.

On HSP90a protein, `C=CC(=O)N1CCN(c2nc(NCCC(=O)N3CCC(CN4CCN(Cc5ccc(-n6c(C(N)=O)nnc6-c6cc(CC)c(O)cc6O)cc5)CC4)CC3)nc3c2CCN(c2cccc4ccccc24)C3)C[C@H]1CC#N` [Compound 98, (R)-4-(4-((4-((1-(3-((4-(4-acryloyl-3-(cyanomethyl)piperazin-1-yl)-7-(naphthalen-1-yl)-5,6,7,8-tetrahydropyrido[3,4-d]pyrimidin-2-yl)amino)propanoyl)piperidin-4-yl)methyl)piperazin-1-yl)methyl)phenyl)-5-(5-ethyl-2,4-dihydroxyphenyl)-4H-1,2,4-triazole-3-carboxamide, trifluoroacetic acid] came in with an IC50 below 100 nM. Also, the EC50 in assay [1] and in assay [2] was 100 to 1000 nM in each case.

`C=CC(=O)N1CCN(c2nc(NCCC(=O)NCCc3ccc(CN4CCC(Cc5ccc(-n6c(C(=O)NCC(F)(F)F)nnc6-c6cc(C(C)C)c(O)cc6O)cc5)CC4)cc3)nc3c2CCN(c2cccc4ccccc24)C3)C[C@H]1CC#N` [Compound 108, (R)-4-(4-((1-(4-(2-(3-((4-(4-acryloyl-3-(cyanomethyl)piperazin-1-yl)-7-(naphthalen-1-yl)-5,6,7,8-tetrahydropyrido[3,4-d]pyrimidin-2-yl)amino)propanamido)ethyl)benzyl)piperidin-4-yl)methyl)phenyl)-5-(2,4-dihydroxy-5-isopropylphenyl)-N-(2,2,2-trifluoroethyl)-4H-1,2,4-triazole-3-carboxamide, trifluoroacetic acid, trifluoroacetic acid, trifluoroacetic acid, trifluoroacetic …] returned an IC50 on HSP90a protein of 100 to 1000 nM. The EC50 in assay [1] and in assay [2] was 100 to 1000 nM throughout.

Molecule `C=CC(=O)N1CCN(c2nc(NCCC(=O)N3CCC(CN4CCN(Cc5ccc(-n6c(O)nnc6-c6cc(C(C)C)c(O)cc6O)cc5)CC4)CC3)nc3c2CCN(c2cccc4ccccc24)C3)C[C@H]1CC#N` [Compound 78, (R)-2-(1-acryloyl-4-(2-((3-(4-((4-(4-(3-(2,4-dihydroxy-5-isopropylphenyl)-5-hydroxy-4H-1,2,4-triazol-4-yl)benzyl)piperazin-1-yl)methyl)piperidin-1-yl)-3-oxopropyl)amino)-7-(naphthalen-1-yl)-5,6,7,8-tetrahydropyrido[3,4-d]pyrimidin-4-yl)piperazin-2-yl)acetonitrile] returned an IC50 at HSP90a protein below 100 nM. Besides, the EC50 in assay [1] and in assay [2] was 100 to 1000 nM each time.

On HSP90a protein, `C=CC(=O)N1CCN(c2nc(NCCC(=O)N3CCC(CN4CCN(Cc5ccc(-n6c(C(=O)NCC(F)(F)F)nnc6-c6cc(C)c(O)cc6O)cc5)CC4)CC3)nc3c2CCN(c2cc(O)cc4ccccc24)C3)CC1` [Compound 10, 4-(4-((4-((1-(3-((4-(4-acryloylpiperazin-1-yl)-7-(3-hydroxynaphthalen-1-yl)-5,6,7,8-tetrahydropyrido[3,4-d]pyrimidin-2-yl)amino)propanoyl)piperidin-4-yl)methyl)piperazin-1-yl)methyl)phenyl)-5-(2,4-dihydroxy-5-methylphenyl)-N-(2,2,2-trifluoroethyl)-4H-1,2,4-triazole-3-carboxamide, trifluoroacetic acid] returned an IC50 of 100 to 1000 nM. Further, the EC50 in assay [1] and in assay [2] was 100 to 1000 nM in each case.

On to `CCC(=O)N1CCN(c2nc(NCCC(=O)N3CCC(CN4CCN(Cc5ccc(-n6c(C(N)=O)nnc6-c6cc(CC)c(O)cc6O)cc5)CC4)CC3)nc3c2CCN(c2cc(O)cc4ccccc24)C3)CC1` [Compound 75, 5-(5-ethyl-2,4-dihydroxyphenyl)-4-(4-((4-((1-(3-((7-(3-hydroxynaphthalen-1-yl)-4-(4-propionylpiperazin-1-yl)-5,6,7,8-tetrahydropyrido[3,4-d]pyrimidin-2-yl)amino)propanoyl)piperidin-4-yl)methyl)piperazin-1-yl)methyl)phenyl)-4H-1,2,4-triazole-3-carboxamide, trifluoroacetic acid], for which the IC50 on HSP90a protein was below 100 nM. The EC50 in assay [1] was above 1000 nM; in assay [2], 100 to 1000 nM.

On to `C=C(F)C(=O)N1CCN(c2nc(N3CCC(N4CCN(Cc5ccc(-n6c(O)nnc6-c6cc(C(C)C)c(O)cc6O)cc5)CC4)CC3)nc3c2CCN(c2cccc4cccc(Cl)c24)C3)C[C@@H]1CC#N` [Compound 132, (S)-2-(4-(7-(8-chloronaphthalen-1-yl)-2-(4-(4-(4-(3-(2,4-dihydroxy-5-isopropylphenyl)-5-hydroxy-4H-1,2,4-triazol-4-yl)benzyl)piperazin-1-yl)piperidin-1-yl)-5,6,7,8-tetrahydropyrido[3,4-d]pyrimidin-4-yl)-1-(2-fluoroacryloyl)piperazin-2-yl)acetonitrile], for which, at HSP90a protein, the IC50 lay within 100 to 1000 nM. The EC50 in assay [1] and in assay [2] was 100 to 1000 nM throughout.
